Measurements: patent publication US8354443B2, “Cyclopropane indolinone derivatives” (Hoffmann-La Roche Inc., priority 2009, dated 2013)

Test system: recombinant AMPK proteins (α1β1γ1, α2β1γ1, α1(1-335), α1(1-394) or α2(1-394))
Experiment: Scintillation Proximity Assay (AMPK activation)
Type: biochemical, human
Settings: effective concentration of activator for 50% of maximal enzyme activity; 2 hr at 30° C.; AMPK form not specified
Description: Recombinant human AMPK α1β1γ1, α2β1γ1 or AMPK a subunit truncations α1 (1-335), α1 (1-394) and α2(1-394) were constructed, expressed and purified as described previously (Pang, T., Zhang, Z. S., Gu, M., Qiu, B. Y., Yu, L. F., Cao, P. R., Shao, W., Su, M. B., Li, J. Y., Nan, F. J., and Li, J. (2008) or purchased from Invitrogen (San Diego, Calif., U.S.A.). Rat liver AMPK heterotrimer enzyme was obtained from Upstate (Billerica, Mass., U.S.A.).
Before the Scintillation Proximity Assay (SPA) assay, 200 nM recombinant AMPK proteins (α1β1γ1, α2β1γ1, α1(1-335), α1(1-394) or α2(1-394)) were fully phosphorylated as described previously (Pang et al., 2008). SPA reactions were performed in 96-well plates at a final volume of 50 μl containing 20 mM Tris-HCl pH 7.5, 5 mM MgCl2, 1 mM DTT, 2 μM biotin-SAMS, 2 μM ATP, 0.2 μCi/well [γ-^33P]ATP, and various amount of activator. Reactions were initiated by the addition of 50 nM recombinant AMPK proteins to the reaction solutions and incubated at 30° C. for 2 hr. After that, reactions were terminated by the addition of 40 μl stop solution containing 80 μg streptavidin-coated SPA beads per well, 50 mM EDTA, 0.1% Triton X-100 in PBS, pH 7.5 and incubated for 1 hr. Finally, a 160 μl suspension solution containing 2.4 M CsCl, 50 mM EDTA, and 0.1% Triton X-100 in PBS (pH 7.5) was added to the reaction solution to suspend SPA beads completely. SPA signals were determined with a Wallac MicroBeta plate counter (PerkinElmer) 30 min later for calculation of the amount of product formed. The amount of products formed in 2 hr was plotted against activator concentrations to determine the effective concentration of the activator (EC50) required for 50% of maximal enzyme activity.

Structure (SMILES)	EC50 [nM]
O=C(O)c1cccc(CN2C(=O)[C@]3(C[C@H]3c3ccc(Cl)cc3)c3cc(F)ccc32)c1 (racemic) [Example 23, (1S,2S) and (1R,2R)-3-((2-(4-chlorophenyl)-5′-fluoro-2′-oxospiro[cyclopropane-1,3′-indoline]-1′-yl)methyl)benzoic acid]	1660
O=C(Nc1cc(C2CC2)[nH]n1)c1cccc(CN2C(=O)[C@]3(C[C@@H]3c3ccc(Cl)cc3)c3ccccc32)c1 (racemic) [Example 117, (1S,2R) and (1R,2S)-3-((2-(4-chlorophenyl)-2′-oxospiro[cyclopropane-1,3′-indoline]-1′-yl)methyl)-N-(5-cyclopropyl-1H-pyrazol-3-yl)benzamide]	990
COc1ccc([C@H]2C[C@]23C(=O)N(Cc2cccc(C(=O)O)c2)c2ccccc23)cc1 (racemic) [Example 21, (1S,2R) and (1R,2S)-3-((2-(4-methoxyphenyl)-2′-oxospiro[cyclopropane-1,3′-indoline]-1′-yl)methyl)benzoic acid]	2030
O=C(O)c1cccc(CN2C(=O)[C@@]3(C[C@@H]3c3ccc(Cl)cc3)c3cc(Cl)ccc32)c1 (racemic) [Example 14, (1R,2R) and (1S,2S)-3-((5′-chloro-2-(4-chlorophenyl)-2′-oxospiro[cyclopropane-1,3′-indoline]-1′-yl)methyl)benzoic acid]	2030
O=C(NCCN1CCOCC1)c1cccc(CN2C(=O)[C@@]3(C[C@H]3c3ccc(Cl)cc3)c3ccccc32)c1 (racemic) [Example 114, (1R,2S) and (1S,2R)-3-((2-(4-chlorophenyl)-2′-oxospiro[cyclopropane-1,3′-indoline]-1′-yl)methyl)-N-(2-morpholinoethyl)benzamide]	6480
O=C1N(CCN2CCOCC2)c2ccccc2[C@@]12C[C@@H]2c1ccc(Cl)cc1 (racemic) [Example 72, (1S,2R) and (1R,2S)-2-(4-chlorophenyl)-1′-(2-morpholinoethyl) spiro[cyclopropane-1,3′-indolin]-2′-one]	4100
COc1cccc([C@@H]2C[C@]23C(=O)N(Cc2cccc(C(=O)O)c2)c2ccccc23)c1 (racemic) [Example 19, (1S,2S) and (1R,2R)-3-((2-(3-methoxyphenyl)-2′-oxospiro[cyclopropane-1,3′-indoline]-1′-yl)methyl)benzoic acid]	1420
O=C(O)c1cn(CCN2C(=O)[C@]3(C[C@@H]3c3ccc(Cl)cc3)c3ccccc32)cn1 (racemic) [Example 81, (1S,2R) and (1R,2S)-1-(2-(2-(4-chlorophenyl)-2′-oxospiro[cyclopropane-1,3′-indoline]-1′-yl)ethyl)-1H-imidazole-4-carboxylic acid]	2220
O=C(c1cccc(CN2C(=O)[C@]3(C[C@@H]3c3ccc(Cl)cc3)c3ccccc32)c1)N1CCNCC1 (racemic) [Example 62, (1S,2R) and (1R,2S)-2-(4-chlorophenyl)-1′-(3-(piperazine-1-carbonyl)benzyl)spiro[cyclopropane-1,3′-indolin]-2′-one]	6570
O=C(O)c1cccc(CN2C(=O)[C@]3(C[C@H]3c3ccc(F)cc3)c3ccccc32)c1 (racemic) [Example 26, (1S,2S) and (1R,2R)-3-((-2-(4-fluorophenyl)-2′-oxospiro[cyclopropane-1,3′-indoline]-1′-yl)methyl)benzoic acid]	1790
O=C(c1cccc(CN2C(=O)[C@]3(C[C@@H]3c3ccc(Cl)cc3)c3ccccc32)c1)N1CCCCC1 (racemic) [Example 60, (1S,2R) and (1R,2S)-2-(4-chlorophenyl)-1′-(3-(piperidine-1-carbonyl)benzyl) Spiro[cyclopropane-1,3′-indolin]-2′-one]	3500
O=C(O)c1cccc(N2C(=O)[C@]3(C[C@H]3c3ccc(Cl)cc3)c3ccccc32)c1 (racemic) [Example 84, (1S,2S) and (1R,2R)-3-(−2-(4-chlorophenyl)-2′-oxospiro[cyclopropane-1,3′-indoline]-1′-yl)benzoic acid]	2980
CS(=O)(=O)c1cc(C(=O)O)cc(N2C(=O)[C@]3(C[C@H]3c3ccc(Cl)cc3)c3ccccc32)c1 (racemic) [Example 93, (1S,2S) and (1R,2R)-3-(2-(4-chlorophenyl)-2′-oxospiro[cyclopropane-1,3′-indoline]-1′-yl)-5-(methylsulfonyl)benzoic acid]	910
O=C(c1cccc(CN2C(=O)[C@@]3(C[C@H]3c3ccc(Cl)cc3)c3ccccc32)c1)N1CCN(c2ccncc2)CC1 (racemic) [Example 64, (1R,2S) and (1S,2R)-2-(4-chlorophenyl)-1′-(3-(4-(pyridin-4-yl)piperazine-1-carbonyl)benzyl)spiro[cyclopropane-1,3′-indolin]-2′-one]	1600
O=C1N(CCN2CCCCC2)c2ccccc2[C@@]12C[C@@H]2c1ccc(Cl)cc1 (racemic) [Example 125, (1S,2R) and (1R,2S)-2-(4-chlorophenyl)-1′-(2-(piperidin-1-yl)ethyl)spiro[cyclopropane-1,3′-indolin]-2′-one]	1750
CS(=O)(=O)N1CCN(C(=O)c2cccc(N3C(=O)[C@]4(C[C@@H]4c4ccc(Cl)cc4)c4ccccc43)c2)CC1 (racemic) [Example 90, (1R,2S) and (1S,2R)-2-(4-chlorophenyl)-1′-(3-(4-(methylsulfonyl)piperazine-1-carbonyl)phenyl)spiro[cyclopropane-1,3′-indolin]-2′-one]	1470
CS(=O)(=O)N1CCN(C(=O)c2cccc(CN3C(=O)[C@@]4(C[C@H]4c4ccc(Cl)cc4)c4ccccc43)c2)CC1 (racemic) [Example 115, (1R,2S) and (1S,2R)-2-(4-chlorophenyl)-1′-(3-(4-(methylsulfonyl)piperazine-1-carbonyl)benzyl)spiro[cyclopropane-1,3′-indolin]-2′-one]	5140
CN1CCN(C(=O)c2cccc(N3C(=O)[C@]4(C[C@@H]4c4ccc(Cl)cc4)c4ccccc43)c2)CC1 (racemic) [Example 89, (1S,2R) and (1R,2S)-2-(4-chlorophenyl)-1′-(3-(4-methylpiperazine-1-carbonyl)phenyl)spiro[cyclopropane-1,3′-indolin]-2′-one]	1400
O=C(O)c1cccc(CN2C(=O)[C@]3(C[C@@H]3c3ccccc3F)c3ccccc32)c1 (mixture of isomers) [Example 8, (1S,2R) and (1R,2S)-3-((2-(2-fluorophenyl)-2′-oxospiro[cyclopropane-1,3′-indoline]-1′-yl)methyl)benzoic acid]	2770
O=C(c1cccc(CN2C(=O)[C@@]3(C[C@H]3c3ccc(Cl)cc3)c3ccccc32)c1)N1CCOCC1 (racemic) [Example 63, (1R,2S) and (1S,2R)-2-(4-chlorophenyl)-1′-(3-(morpholine-4-carbonyl)benzyl)spiro[cyclopropane-1,3′-indolin]-2′-one]	1540
CN(C)CCN1CCN(CCN2C(=O)[C@]3(C[C@@H]3c3ccc(Cl)cc3)c3ccccc32)CC1 (racemic) [Example 75, (1S,2R) and (1R,2S)-2-(4-chlorophenyl)-1′-(2-(4-(2-(dimethylamino)ethyl)piperazin-1-yl)ethyl) Spiro[cyclopropane-1,3′-indolin]-2′-one]	5910
O=C1N(CC2CCOCC2)c2ccccc2[C@@]12C[C@@H]2c1ccc(Cl)cc1 (racemic) [Example 70, (1S,2R) and (1R,2S)-2-(4-chlorophenyl)-1′-((tetrahydro-2 H-pyran-4-yl)methyl)spiro[cyclopropane-1,3′-indolin]-2′-one]	1540
O=C(O)c1cc(CN2C(=O)[C@]3(C[C@@H]3c3ccc(Cl)cc3)c3ccccc32)ccc1Cl (racemic) [Example 6, (1S,2R) and (1R,2S)-2-chloro-5-((2-(4-chlorophenyl)-2′-oxospiro[cyclopropane-1,3′-indoline]-1′-yl)methyl)benzoic acid]	7100
CS(=O)(=O)N1CCC(CN2C(=O)[C@]3(C[C@@H]3c3ccc(Cl)cc3)c3ccccc32)CC1 (racemic) [Example 73, (1S,2R) and (1R,2S)-2-(4-chlorophenyl)-1′-((1-(methylsulfonyl)piperidin-4-yl)methyl) Spiro[cyclopropane-1,3′-indolin]-2′-one]	1650
O=C(O)c1cccc(CN2C(=O)[C@]3(C[C@@H]3c3ccc(Cl)cc3)c3cc(Br)ccc32)c1 (racemic) [Example 16, (1S,2R) and (1R,2S)-3-((5′-bromo-2-(4-chlorophenyl)-2′-oxospiro[cyclopropane-1,3′-indoline]-1′-yl)methyl)benzoic acid]	2720
